Common to all, as to experiment: spectrophotometric enzyme assay, recombinant human enzyme, […] ATP-Mg2+
What all share (format): biochemical

In one experiment the target is T1, hexokinase 3 (hHK3) (Homo sapiens, UniProt P52790).
T1 sequence (P52790 1-923): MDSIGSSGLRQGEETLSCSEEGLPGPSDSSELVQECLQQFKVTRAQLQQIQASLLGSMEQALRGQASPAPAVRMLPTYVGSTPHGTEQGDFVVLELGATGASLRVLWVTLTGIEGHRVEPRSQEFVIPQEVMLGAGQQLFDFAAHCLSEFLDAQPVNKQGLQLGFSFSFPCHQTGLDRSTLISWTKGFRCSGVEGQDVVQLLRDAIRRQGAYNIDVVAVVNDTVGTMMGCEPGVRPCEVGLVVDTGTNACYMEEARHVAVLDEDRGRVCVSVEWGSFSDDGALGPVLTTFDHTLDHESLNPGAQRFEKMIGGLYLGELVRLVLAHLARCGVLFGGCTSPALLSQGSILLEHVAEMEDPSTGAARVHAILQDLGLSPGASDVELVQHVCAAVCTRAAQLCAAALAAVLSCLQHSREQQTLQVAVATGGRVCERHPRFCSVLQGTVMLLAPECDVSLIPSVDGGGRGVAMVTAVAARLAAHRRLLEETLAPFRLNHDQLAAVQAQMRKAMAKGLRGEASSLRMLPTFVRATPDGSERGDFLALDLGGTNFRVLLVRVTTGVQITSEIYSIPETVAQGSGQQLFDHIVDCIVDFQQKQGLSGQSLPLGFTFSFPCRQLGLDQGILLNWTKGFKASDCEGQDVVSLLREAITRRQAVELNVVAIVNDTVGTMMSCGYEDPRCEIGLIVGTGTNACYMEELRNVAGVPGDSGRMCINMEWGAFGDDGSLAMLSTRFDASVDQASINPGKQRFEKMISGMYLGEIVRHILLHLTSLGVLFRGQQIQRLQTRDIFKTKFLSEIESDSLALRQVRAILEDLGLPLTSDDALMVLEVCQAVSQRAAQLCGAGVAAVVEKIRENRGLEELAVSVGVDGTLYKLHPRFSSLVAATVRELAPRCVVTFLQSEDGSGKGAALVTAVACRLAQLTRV

The next experiment deals with T2, hexokinase 1 (∆21-hHK1) (Homo sapiens, UniProt P19367).
T2 sequence (P19367 22-917): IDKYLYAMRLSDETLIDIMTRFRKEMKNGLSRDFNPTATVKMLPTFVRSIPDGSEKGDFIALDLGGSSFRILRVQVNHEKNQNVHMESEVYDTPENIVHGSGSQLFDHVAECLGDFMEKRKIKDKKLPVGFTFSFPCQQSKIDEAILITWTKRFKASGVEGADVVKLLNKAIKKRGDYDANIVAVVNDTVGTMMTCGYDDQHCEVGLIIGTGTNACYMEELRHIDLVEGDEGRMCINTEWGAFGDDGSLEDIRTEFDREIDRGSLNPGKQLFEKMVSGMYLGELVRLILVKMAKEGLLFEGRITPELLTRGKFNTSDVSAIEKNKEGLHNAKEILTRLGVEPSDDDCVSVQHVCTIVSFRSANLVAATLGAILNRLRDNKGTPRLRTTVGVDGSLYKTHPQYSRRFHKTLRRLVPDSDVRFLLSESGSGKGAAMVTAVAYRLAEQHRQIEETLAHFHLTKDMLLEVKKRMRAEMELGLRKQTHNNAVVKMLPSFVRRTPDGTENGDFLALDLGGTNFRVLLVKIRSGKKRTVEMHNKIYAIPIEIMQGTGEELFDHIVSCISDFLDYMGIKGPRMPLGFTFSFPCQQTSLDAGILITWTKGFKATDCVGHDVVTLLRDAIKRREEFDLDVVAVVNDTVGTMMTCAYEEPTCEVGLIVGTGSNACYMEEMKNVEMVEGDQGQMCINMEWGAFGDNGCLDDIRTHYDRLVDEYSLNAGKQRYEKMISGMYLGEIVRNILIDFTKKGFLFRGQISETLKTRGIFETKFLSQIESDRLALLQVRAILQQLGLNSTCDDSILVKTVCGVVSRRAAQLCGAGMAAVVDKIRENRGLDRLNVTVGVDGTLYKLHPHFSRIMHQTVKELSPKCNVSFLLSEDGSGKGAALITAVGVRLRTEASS

A further experiment deals with T3, hexokinase 2 (∆28-hHK2) (Homo sapiens, UniProt P52789).
T3 sequence (P52789 29-917): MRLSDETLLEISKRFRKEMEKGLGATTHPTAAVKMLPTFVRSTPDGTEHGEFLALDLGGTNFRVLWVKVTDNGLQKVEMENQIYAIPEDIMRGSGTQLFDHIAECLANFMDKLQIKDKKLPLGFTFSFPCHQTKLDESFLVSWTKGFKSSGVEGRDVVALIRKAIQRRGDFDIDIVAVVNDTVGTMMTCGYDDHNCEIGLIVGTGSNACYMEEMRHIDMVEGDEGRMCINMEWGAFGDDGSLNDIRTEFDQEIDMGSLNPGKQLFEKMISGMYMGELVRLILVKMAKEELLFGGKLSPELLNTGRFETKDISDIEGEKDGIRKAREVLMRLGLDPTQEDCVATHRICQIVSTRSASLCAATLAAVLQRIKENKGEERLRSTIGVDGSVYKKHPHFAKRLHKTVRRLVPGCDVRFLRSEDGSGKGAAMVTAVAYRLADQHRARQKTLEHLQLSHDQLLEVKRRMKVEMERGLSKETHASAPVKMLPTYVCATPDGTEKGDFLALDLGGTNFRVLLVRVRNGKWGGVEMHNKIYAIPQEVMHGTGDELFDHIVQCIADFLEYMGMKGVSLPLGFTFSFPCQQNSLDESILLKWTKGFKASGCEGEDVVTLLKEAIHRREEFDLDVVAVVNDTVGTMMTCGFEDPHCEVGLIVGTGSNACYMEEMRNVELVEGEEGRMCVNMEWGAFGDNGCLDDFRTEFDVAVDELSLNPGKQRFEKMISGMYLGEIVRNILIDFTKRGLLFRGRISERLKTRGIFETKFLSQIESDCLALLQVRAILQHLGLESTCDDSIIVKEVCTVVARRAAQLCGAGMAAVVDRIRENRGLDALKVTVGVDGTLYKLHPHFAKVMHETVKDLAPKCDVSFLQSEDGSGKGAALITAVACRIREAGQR

Molecules are shown by their SMILES.

As for `O=P(O)(O)OC[C@H]1OC[C@H](O)[C@@H](O)[C@@H]1O` [1,5AG6P, 1,5-anhydroglucitol-6-phosphate], the figures for the Ki on hexokinase 3 (hHK3), at hexokinase 1 (∆21-hHK1) and at hexokinase 2 (∆28-hHK2) were 134 ± 9 µM, 53 ± 2 µM and 96 ± 3 µM, respectively.

The record behind these values is paper PMC6347702 (Proceedings of the National Academy of Sciences of the …, 2019).
